Tested on: BLaER1 monocytes
Experiment: Ectopic doxycycline-inducible expression of virulence factors, IFN induction by q-RT-PCR
Type: cell-based, human
Settings: doxycycline-inducible lentiviral expression in BLaER1 monocytes, doxycycline 24 h; gene expression by q-RT-PCR
Experimental: BLaER1, U937 and THP-1 cells were cultured in RPMI Medium 1640 supplemented with L-glutamine, sodium pyruvate, 100 U/ml penicillin-streptomycin (Thermo Fisher) and 10% (v/v) FCS (Omega Scientific). HEK293T, U2OS and HCT116 cells were cultivated in DMEM Medium (Thermo Fisher) containing the same supplements. 1.4 million BLaER1 cells per well of a 6-well plate were trans-differentiated into monocytes for 5-6 days in medium containing 10 ng/ml of hrIL-3, 10 ng/ml hr-CSF-1 (M-CSF) (both PeproTech) and 100 nM β-Estradiol (Sigma-Aldrich) as previously described. 1.4 million THP-1 and U937 cells per well of a 6-well plate were differentiated overnight with 100 ng/ml PMA (Sigma-Aldrich). STING-deficient and corresponding control THP1 and U937 cells were a gift from Dan Stetson (University of Washington). BLaER1 cells were a gift from Thomas Graf (CRG, Barcelona, Spain) and Veit Hornung (LMU Munich, Germany). U2OS cells were a gift from Robert Tjian and Xavier Darzacq (UC Berkeley). THP1 cells were from ATCC. U937 cells were from the UC Berkeley Cell Culture Facility. HCT116 cells were a gift from David Raulet (UC Berkeley). […]
Gene expression was quantified by quantitative PCR with reverse transcription (RT-qPCR). […] SYBRGreen dye (Thermo Fisher Scientific) was used for quantitative PCR assays and analyzed with a real-time PCR system (StepOnePlus; Applied Biosystems). […]

| Substance | IFN induction (IFN response) |
| --- | --- |
| ICP0 D199A: predominantly nuclear variant of ICP0 | not impaired in IFN induction |
| ICP0: key virulence factor of Herpes Simplex Virus-1, SUMO-directed E3 ubiquitin ligase; Accession No. YP_009137074.1, SEQ ID NO: 2 | led to an IFN response |

— patent US20240076666A1, “Immunomodulators Targeting MORC3 for Interferon Induction” (The Regents of the University of California, priority 2021, published 2024)
